The text below walks through data of ChEMBL document CHEMBL1909046, “DrugMatrix in vitro pharmacology data”.

Each structure is given as a SMILES string.

The target in one test is T1, Androgen receptor (Rattus norvegicus, UniProt P15207). Further: in other assays of this panel Not Active means under 50% inhibition at 10 µM.
T1 sequence (P15207 whole entry): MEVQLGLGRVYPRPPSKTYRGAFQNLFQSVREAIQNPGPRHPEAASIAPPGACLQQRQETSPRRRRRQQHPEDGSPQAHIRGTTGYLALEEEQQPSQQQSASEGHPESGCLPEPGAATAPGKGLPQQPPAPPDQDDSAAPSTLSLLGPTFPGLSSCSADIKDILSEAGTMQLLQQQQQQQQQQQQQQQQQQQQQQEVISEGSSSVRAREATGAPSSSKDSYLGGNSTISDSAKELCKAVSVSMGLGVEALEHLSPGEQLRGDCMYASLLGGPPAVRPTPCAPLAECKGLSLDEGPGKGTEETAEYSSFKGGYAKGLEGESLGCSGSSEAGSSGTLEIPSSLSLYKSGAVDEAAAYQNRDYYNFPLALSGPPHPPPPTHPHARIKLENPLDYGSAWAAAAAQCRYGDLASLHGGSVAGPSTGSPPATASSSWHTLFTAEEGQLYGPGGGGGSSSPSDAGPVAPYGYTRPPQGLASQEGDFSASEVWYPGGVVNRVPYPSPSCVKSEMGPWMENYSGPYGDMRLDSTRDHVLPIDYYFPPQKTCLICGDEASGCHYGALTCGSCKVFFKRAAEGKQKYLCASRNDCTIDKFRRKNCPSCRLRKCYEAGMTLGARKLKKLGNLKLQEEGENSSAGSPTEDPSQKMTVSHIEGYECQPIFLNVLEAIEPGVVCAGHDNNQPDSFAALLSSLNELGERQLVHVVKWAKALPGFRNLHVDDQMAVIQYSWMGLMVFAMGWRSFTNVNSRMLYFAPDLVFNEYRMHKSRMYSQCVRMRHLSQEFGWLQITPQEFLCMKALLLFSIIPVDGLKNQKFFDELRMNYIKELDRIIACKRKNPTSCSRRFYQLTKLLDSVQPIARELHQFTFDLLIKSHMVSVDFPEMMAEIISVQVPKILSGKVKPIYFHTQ

For the next test, the target named is Histamine H2 receptor (Homo sapiens, UniProt P25021). The test is classed as cell membranes, CHO-K1, Membrane. The conditions noted are these: cho-k1. Further: in other assays of this panel Not Active means under 50% inhibition at 10 µM.
Test [1] in a line: DRUGMATRIX: Calcium Channel Type L, Benzothiazepine radioligand binding (ligand: [3H] Diltiazem). The test is classed as cell membranes, Rattus norvegicus, Wistar, Brain, Membrane. The conditions noted are these: Not Active = under 50% inhibition at 10 µM.
A further test deals with Cytochrome P450 2C9 (Homo sapiens, UniProt P11712).
Another test addresses T2, Cytochrome P450 1A2 (Homo sapiens, UniProt P05177).
T2 sequence (P05177 whole entry): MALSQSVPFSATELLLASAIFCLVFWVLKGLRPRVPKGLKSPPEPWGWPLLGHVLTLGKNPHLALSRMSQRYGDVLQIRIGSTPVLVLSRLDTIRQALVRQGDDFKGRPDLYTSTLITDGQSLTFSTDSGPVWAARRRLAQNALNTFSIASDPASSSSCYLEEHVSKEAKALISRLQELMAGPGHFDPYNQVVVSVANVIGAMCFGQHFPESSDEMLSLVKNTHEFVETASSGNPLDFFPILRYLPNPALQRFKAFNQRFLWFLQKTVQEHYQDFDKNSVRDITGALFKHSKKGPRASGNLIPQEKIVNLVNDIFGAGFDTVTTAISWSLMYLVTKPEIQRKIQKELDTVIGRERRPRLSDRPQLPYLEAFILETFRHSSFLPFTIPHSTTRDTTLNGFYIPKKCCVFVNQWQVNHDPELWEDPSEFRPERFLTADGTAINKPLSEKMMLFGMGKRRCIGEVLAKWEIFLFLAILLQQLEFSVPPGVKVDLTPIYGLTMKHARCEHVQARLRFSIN

For the next test, the target named is Cytochrome P450 2C19 (Homo sapiens, UniProt P33261). Further: in other assays of this panel Not Active means under 50% inhibition at 10 µM.
The target of another test is T3, Glucocorticoid receptor (Homo sapiens, UniProt P04150). Further: in other assays of this panel Not Active means under 50% inhibition at 10 µM.
T3 sequence (P04150 whole entry): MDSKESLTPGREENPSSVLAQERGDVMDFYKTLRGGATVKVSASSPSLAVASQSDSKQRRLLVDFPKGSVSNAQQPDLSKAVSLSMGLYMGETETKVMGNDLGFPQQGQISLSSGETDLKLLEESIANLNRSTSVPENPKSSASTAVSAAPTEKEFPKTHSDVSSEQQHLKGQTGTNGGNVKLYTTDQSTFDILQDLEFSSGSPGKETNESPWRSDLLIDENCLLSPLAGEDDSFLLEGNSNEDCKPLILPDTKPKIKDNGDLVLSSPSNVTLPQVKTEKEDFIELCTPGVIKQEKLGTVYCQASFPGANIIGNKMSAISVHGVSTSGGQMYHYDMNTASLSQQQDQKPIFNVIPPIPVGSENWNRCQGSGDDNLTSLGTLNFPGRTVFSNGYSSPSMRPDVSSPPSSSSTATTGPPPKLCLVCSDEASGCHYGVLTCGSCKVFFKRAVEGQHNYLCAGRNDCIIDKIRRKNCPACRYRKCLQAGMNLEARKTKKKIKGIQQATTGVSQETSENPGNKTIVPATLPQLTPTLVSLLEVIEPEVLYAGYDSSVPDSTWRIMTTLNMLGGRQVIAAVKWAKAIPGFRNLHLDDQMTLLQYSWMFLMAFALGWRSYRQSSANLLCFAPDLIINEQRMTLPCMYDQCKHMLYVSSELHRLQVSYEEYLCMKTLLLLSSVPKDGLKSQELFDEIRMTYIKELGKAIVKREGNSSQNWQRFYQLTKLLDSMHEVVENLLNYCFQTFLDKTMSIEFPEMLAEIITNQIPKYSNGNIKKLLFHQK
The test can be described thus: biochemical.

Test [2] deals with Voltage-gated inwardly rectifying potassium channel KCNH2 (Homo sapiens, UniProt Q12809).
Chain of Voltage-gated inwardly rectifying potassium channel KCNH2 (Q12809 whole entry): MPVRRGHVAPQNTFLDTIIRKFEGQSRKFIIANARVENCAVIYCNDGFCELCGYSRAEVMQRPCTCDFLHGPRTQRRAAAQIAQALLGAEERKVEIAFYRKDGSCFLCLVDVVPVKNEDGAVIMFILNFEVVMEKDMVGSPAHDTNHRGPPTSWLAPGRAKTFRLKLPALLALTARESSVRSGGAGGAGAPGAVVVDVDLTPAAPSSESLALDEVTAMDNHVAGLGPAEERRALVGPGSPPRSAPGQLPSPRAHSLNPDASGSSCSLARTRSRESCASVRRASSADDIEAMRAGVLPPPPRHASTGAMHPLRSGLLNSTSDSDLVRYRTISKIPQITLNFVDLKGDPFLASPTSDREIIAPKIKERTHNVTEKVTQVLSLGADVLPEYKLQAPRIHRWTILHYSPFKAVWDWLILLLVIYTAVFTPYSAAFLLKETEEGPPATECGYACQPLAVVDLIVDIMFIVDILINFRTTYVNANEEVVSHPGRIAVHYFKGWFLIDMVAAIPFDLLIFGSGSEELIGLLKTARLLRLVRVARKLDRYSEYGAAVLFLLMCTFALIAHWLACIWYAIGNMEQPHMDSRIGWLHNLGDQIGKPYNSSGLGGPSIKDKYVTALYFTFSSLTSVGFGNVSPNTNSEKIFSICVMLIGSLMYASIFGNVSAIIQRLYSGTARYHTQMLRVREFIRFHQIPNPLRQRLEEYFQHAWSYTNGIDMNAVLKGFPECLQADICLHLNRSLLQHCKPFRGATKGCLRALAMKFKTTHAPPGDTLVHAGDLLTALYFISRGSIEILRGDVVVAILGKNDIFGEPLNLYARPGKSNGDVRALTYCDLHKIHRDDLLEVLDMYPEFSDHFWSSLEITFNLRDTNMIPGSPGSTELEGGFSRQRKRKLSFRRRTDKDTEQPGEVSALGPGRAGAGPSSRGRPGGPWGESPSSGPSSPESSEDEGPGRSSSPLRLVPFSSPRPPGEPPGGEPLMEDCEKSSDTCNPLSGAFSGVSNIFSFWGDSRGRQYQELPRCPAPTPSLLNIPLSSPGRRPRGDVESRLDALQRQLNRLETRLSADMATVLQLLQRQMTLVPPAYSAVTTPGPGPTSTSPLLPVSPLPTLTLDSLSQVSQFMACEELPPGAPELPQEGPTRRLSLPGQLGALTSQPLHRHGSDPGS

Chain of Histamine H2 receptor (P25021 whole entry): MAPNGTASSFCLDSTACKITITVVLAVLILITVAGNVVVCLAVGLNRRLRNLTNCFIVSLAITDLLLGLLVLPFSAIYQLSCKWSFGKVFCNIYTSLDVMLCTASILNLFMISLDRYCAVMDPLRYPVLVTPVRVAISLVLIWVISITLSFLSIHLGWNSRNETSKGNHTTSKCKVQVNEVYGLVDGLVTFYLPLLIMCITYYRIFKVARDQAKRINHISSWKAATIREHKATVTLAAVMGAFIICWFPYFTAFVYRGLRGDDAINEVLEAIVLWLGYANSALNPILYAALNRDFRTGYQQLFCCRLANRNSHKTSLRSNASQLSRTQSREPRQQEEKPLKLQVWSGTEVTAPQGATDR
Chain of Cytochrome P450 2C19 (P33261 whole entry): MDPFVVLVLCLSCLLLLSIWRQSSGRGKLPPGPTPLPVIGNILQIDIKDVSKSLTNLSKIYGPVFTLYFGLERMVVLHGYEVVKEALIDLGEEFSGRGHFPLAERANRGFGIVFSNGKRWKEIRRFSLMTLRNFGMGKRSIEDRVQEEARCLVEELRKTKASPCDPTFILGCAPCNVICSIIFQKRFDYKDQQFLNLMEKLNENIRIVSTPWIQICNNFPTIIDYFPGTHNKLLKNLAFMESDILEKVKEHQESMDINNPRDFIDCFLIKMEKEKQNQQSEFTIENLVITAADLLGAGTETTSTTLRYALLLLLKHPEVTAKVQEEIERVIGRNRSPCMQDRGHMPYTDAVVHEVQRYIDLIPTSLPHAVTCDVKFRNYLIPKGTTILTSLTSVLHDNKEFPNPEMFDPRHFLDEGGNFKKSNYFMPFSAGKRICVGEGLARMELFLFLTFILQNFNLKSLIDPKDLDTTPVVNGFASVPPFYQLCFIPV
Chain of Cytochrome P450 2C9 (P11712 whole entry): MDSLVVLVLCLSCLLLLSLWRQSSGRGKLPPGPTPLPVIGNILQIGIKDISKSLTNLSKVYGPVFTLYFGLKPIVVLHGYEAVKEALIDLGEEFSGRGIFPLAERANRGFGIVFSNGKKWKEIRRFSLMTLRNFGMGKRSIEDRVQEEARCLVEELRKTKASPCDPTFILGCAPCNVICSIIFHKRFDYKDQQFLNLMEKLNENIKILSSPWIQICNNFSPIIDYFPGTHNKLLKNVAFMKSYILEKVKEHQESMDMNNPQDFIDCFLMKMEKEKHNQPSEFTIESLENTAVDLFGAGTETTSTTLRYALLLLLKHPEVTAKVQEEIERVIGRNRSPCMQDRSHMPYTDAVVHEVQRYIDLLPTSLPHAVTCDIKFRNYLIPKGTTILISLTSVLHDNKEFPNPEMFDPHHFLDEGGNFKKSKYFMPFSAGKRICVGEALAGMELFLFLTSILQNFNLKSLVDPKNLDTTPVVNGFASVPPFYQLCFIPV

Broadly, the IC50 is the concentration needed to halve the response being measured. Broadly, the Ki is a measure of affinity in units of concentration, obtained from inhibition or displacement. With `Cc1c(C)c2c(c(C)c1O)CCC(C)(COc1ccc(CC3SC(=O)NC3=O)cc1)O2` (stereo unspecified) [TROGLITAZONE], the half-inhibitory concentration (IC50) result is “Not Active” against Androgen receptor, “Not Active” on Histamine H2 receptor, “Not Active” in test [1] and 4000 nM on Cytochrome P450 2C9. For the same molecule, the Ki result in test [1] is reported as “Not Active”.
For `CSc1ccc(/C=C2/C(C)=C(CC(=O)O)c3cc(F)ccc32)cc1` [SULINDAC SULFIDE], the half-maximal inhibitory concentration (IC50) result was “Not Active” on Androgen receptor, 2000 nM at Cytochrome P450 1A2, “Not Active” at Histamine H2 receptor and “Not Active” in test [1]. The Ki entry in test [1] was “Not Active”.
With `Cc1cccc(N(C)C(=S)Oc2ccc3ccccc3c2)c1` [TOLNAFTATE], the concentration for half-maximal inhibition (IC50) on Cytochrome P450 2C19 is 3000 nM; on Histamine H2 receptor, “Not Active”; in test [1], “Not Active”. Further, the Ki result in test [1] was “Not Active”.
For `Cc1oncc1C(=O)Nc1ccc(C(F)(F)F)cc1` [LEFLUNOMIDE], the half-maximal inhibitory concentration (IC50) was 500 nM on Cytochrome P450 1A2, “Not Active” against Histamine H2 receptor and “Not Active” in test [1]. The Ki entry in test [1] is on record as “Not Active”.
Turning to `CN1CCN(CCCN2c3ccccc3Sc3ccc(Cl)cc32)CC1` [PROCHLORPERAZINE], the IC50 against Cytochrome P450 1A2 was 2000 nM; against Histamine H2 receptor it was “Not Active”.
For the molecule `CC(=O)[C@@]1(O)CC[C@H]2[C@@H]3C[C@H](C)C4=CC(=O)CC[C@]4(C)[C@H]3CC[C@@]21C`, the concentration for half-maximal inhibition (IC50) at Cytochrome P450 2C19 was 2000 nM; on Glucocorticoid receptor, 19 nM; against Histamine H2 receptor, “Not Active”; in test [1], “Not Active”. Further, the Ki on Glucocorticoid receptor was 8.6 nM; in test [1], “Not Active”.
Consider `C[C@@H]1CN(c2c(F)c(N)c3c(=O)c(C(=O)O)cn(C4CC4)c3c2F)C[C@H](C)N1` [SPARFLOXACIN], for which the half-inhibitory concentration (IC50) entry against Histamine H2 receptor was “Not Active”; in test [2], 47100 nM; in test [1], “Not Active”. In addition, the values for the Ki in test [2] and in test [1] were 38600 nM and “Not Active”, respectively.
